Measurements: ChEMBL document CHEMBL1140122 (J Med Chem, 2008)
pIC50: −log10 of the molar value.

Experiments:
M14 = test: Cytotoxicity against human M14 cells after 48 hrs; type: functional; settings: M14, 48 h
Vero = test: Cytotoxicity against african green monkey Vero cells by MTT assay; type: cell-based; settings: Chlorocebus sabaeus
PC-3 = test: Cytotoxicity against human PC3 cells after 48 hrs; type: functional; settings: PC-3, 48 h
NCI-H460 = test: Cytotoxicity against human H460 cells after 48 hrs; type: functional; settings: NCI-H460, 48 h
MCF7 = test: Cytotoxicity against human MCF7 cells after 48 hrs; type: functional; settings: MCF7, 48 h
HT-29 = test: Cytotoxicity against human HT29 cells after 48 hrs; type: functional; settings: HT-29, 48 h
Trypanosoma cruzi = test: Antitrypanosomal activity against Trypanosoma cruzi Tulahuen C4 in african green monkey Vero cells after 120 hrs; type: functional, organism-based
DU-145 = test: Cytotoxicity against human DU145 cells after 48 hrs; type: functional; settings: DU-145, 48 h
[1] = Selectivity index, IC50 for african green monkey Vero cells to IC50 for Trypanosoma cruzi Tulahuen C4; type: functional
[2] = Cytotoxicity against BALB mouse 3T3 cells after 48 hrs; type: cell-based; settings: BALB 3T3 cells
K562 = test: Cytotoxicity against human K562 cells after 48 hrs; type: functional; settings: K562, 48 h

Row | Structure (SMILES) | GI50 (M14) [µM] | pIC50 (Vero) | GI50 (PC-3) [µM] | GI50 (NCI-H460) [µM] | GI50 (MCF7) [µM] | GI50 (HT-29) [µM] | pIC50 (Trypanosoma cruzi) | GI50 (DU-145) [µM] | Ratio IC50 [1] | GI50 at 48 h [2] [µM] | GI50 (K562) [µM]
1 | C=CCOc1cc(OC)c(C(=O)/C=C/c2ccc(OC)cc2)c(OCC=C)c1 | 27.6 | 4.00 | 18.1 | 20 | 19.5 | 28.4 | 4.67 | 21 | 4.7 | 41 | 16.6
2 | C=CCOc1cc(OC)c(C(=O)/C=C/c2ccc(C(F)(F)F)cc2)c(OCC=C)c1 |  | 5.14 |  |  |  |  | 4.81 |  | 0.5 |  | 
3 | C=CCOc1cc(OC)c(C(=O)/C=C/c2cc(OCC=C)c(Br)c(OCC=C)c2)c(OCC=C)c1 |  | 4.02 |  |  |  |  | 5.16 |  | 13.9 |  | 
4 | C=CCOc1cc(OC)c(C(=O)/C=C/c2cc(OC)c(OC)c(OC)c2)c(OCC=C)c1 |  | 4.39 |  |  |  |  | 5.47 |  | 12 |  | 
5 | COc1ccc(/C=C/C(=O)c2c(O)cc(O)cc2OC)cc1 | 19.6 |  | 19.3 | 14 | 17.3 | 21.6 | < 4.60 | 9 |  | 6.7 | 17
6 | C=CCOc1cc(OC)c(C(=O)/C=C/c2ccccc2Br)c(OCC=C)c1 |  | 4.86 |  |  |  |  | 4.86 |  | 1 |  | 
7 | COc1cc(O)cc(O)c1C(=O)/C=C/c1ccc2c(c1)OCO2 | 22.6 | 4.59 | 18.5 | 15.6 | 20.4 | 20.7 | 5.03 | 12.4 | 2.7 | 5.1 | 16.2
8 | C=CCOc1cc(OC)c(C(=O)/C=C/c2ccc3c(c2)OCO3)c(OCC=C)c1 | 17.2 | 4.13 | 9.6 | 14.5 | 10.9 | 24.1 | 4.87 | 17.5 | 5.4 | 31.7 | 12.2
9 | C=CCOc1cc(OC)c(C(=O)/C=C/c2ccncc2)c(OCC=C)c1 |  | 5.55 |  |  |  |  | 5.82 |  | 1.9 |  | 
10 | COc1cc(O)c(C(=O)CCc2ccc3c(c2)OCO3)c(OC)c1 | 82 |  | 39.1 | 105 | 42.4 | 145 | < 4.00 | 60.2 |  | 21.5 | 28.2
11 | C=CCOc1cc(OC)c(C(=O)/C=C/c2ccco2)c(OCC=C)c1 |  |  |  |  |  |  | 4.91 |  | 15.6 |  | 
12 | COc1cc(O)c(C(=O)/C=C/c2ccc3c(c2)OCO3)c(OC)c1 | > 190 |  | 118 | > 190 | 140 | > 190 | < 4.60 | > 190 |  | 39 | 18.9
13 | C=CCOc1cc(OC)c(C(=O)/C=C/c2ccccc2F)c(OCC=C)c1 |  | 4.79 |  |  |  |  | 5.21 |  | 2.6 |  | 
14 | COc1ccc(CCC(=O)c2c(O)cc(O)cc2OC)cc1 | 109 |  | 59.9 | 128 | 65.5 | > 206 | < 4.60 | > 206 |  | > 206 | 22.8
15 | C=CCOc1cc(OC)c(C(=O)/C=C/C=C/c2ccccc2)c(OCC=C)c1 |  |  |  |  |  |  | < 4.60 |  |  |  | 
16 | C=CCOc1cc(OC)c(C(=O)/C=C/c2cccc(OC)c2)c(OCC=C)c1 |  |  |  |  |  |  | 4.85 |  | 9.9 |  | 
17 | C=CCOc1cc(OC)c(C(=O)/C=C/c2ccc(O)cc2)c(OCC=C)c1 |  | 4.12 |  |  |  |  | 4.69 |  | 3.8 |  | 
18 | COc1ccc(/C=C/C(=O)c2c(O)cc(OC)cc2OC)cc1 [FLAVOKAWAIN A] | 22.5 |  | 15.2 | 24.1 | 17.5 | 45.3 | < 4.60 | 30.8 |  | 17.2 | 20.5
19 | C=CCOc1cc(OC)c(C(=O)/C=C/c2ccc(OC)cc2OC)c(OCC=C)c1 |  | 4.03 |  |  |  |  | 4.88 |  | 7.1 |  | 
20 | C=CCOc1cc(OC)c(C(=O)/C=C/c2ccccc2)c(OCC=C)c1 |  | 4.77 |  |  |  |  | 4.77 |  | 1 |  | 
21 | C=CCOc1cc(OC)c(C(=O)/C=C/c2ccccn2)c(OCC=C)c1 |  | 5.55 |  |  |  |  | 5.72 |  | 1.5 |  | 
22 | C=CCOc1cc(OC)c(C(=O)/C=C/c2ccc(C)cc2)c(OCC=C)c1 |  |  |  |  |  |  | 4.76 |  | 12.3 |  | 
23 | C=CCOc1cc(OC)c(C(=O)/C=C/c2ccc(O)c(OC)c2)c(OCC=C)c1 |  |  |  |  |  |  | < 4.60 |  |  |  | 
24 | C=CCOc1cc(OC)c(C(=O)/C=C/c2ccc[nH]2)c(OCC=C)c1 |  |  |  |  |  |  | < 4.00 |  |  |  | 
25 | C=CCOc1cc(OC)c(C(=O)/C=C/c2ccc(Cl)cc2)c(OCC=C)c1 |  | 4.98 |  |  |  |  | 5.07 |  | 1.2 |  | 
26 | C=CCOc1cc(OC)c(C(=O)/C=C/c2ccc([N+](=O)[O-])cc2)c(OCC=C)c1 |  | 4.90 |  |  |  |  | 5.39 |  | 3.1 |  | 
27 | O=c1[nH]cc(F)c(=O)[nH]1 [FLUOROURACIL] | 22.4 |  | 14.6 | 4.1 | 6.5 | 8.9 |  | 15.4 |  | < 1.54 | 16.7
28 | C=CCOc1cc(OC)c(C(=O)/C=C/c2ccc(F)cc2)c(OCC=C)c1 |  | 4.87 |  |  |  |  | 4.84 |  | 0.9 |  | 
29 | CC1CS(=O)(=O)CCN1/N=C/c1ccc([N+](=O)[O-])o1 (stereo unspecified) [NIFURTIMOX] |  | 4.10 |  |  |  |  | 6.28 |  | 154 |  | 
30 | COc1ccc(CCC(=O)c2c(O)cc(OC)cc2OC)cc1 | > 197 |  | > 197 | > 197 | > 197 | > 197 | < 4.00 | > 197 |  | > 197 | > 197
